Results as given in paper PMC12527934 (Nature, 2025).
*1 amine or outer side, *2 acyl side, *3 side chain or, on linkers, in order; H or OH if unused. Where a SMILES comes first, the peptide text is derived from it. Bridges are numbered along the chain shown (N, C = ends). [ ]: non-standard residue; d: D form. The star is where a group is joined. X4 = CN([C@@H](Cc1cc(Cl)ccc1-c1cnn(C)c1)C(=O)[*:2])[*:1]; X5 = CN([C@@H](Cc1cc(Cl)nn1-c1ccccc1)C(=O)[*:2])[*:1]; cBuCO(3,3-F2-1-CF3) = O=C(C1(C(F)(F)F)CC(F)(F)C1)*; NMePhe(2,5-Cl2) = CN[C@@H](Cc1cc(Cl)ccc1Cl)C(=O)O; X2 = CCCN([C@@H](Cc1cc(Cl)ccc1Cl)C(=O)[*:2])[*:1]; Nle(6-morpholino) = N[C@@H](CCCCN1CCOCC1)C(=O)O; X6 = CN([C@H](Cc1cc(Cl)ccc1Cl)C(=O)[*:2])[*:1]; Pro(trans-4-F) = O=C(O)[C@@H]1C[C@@H](F)CN1; dPro(trans-4-F) = O=C(O)[C@H]1C[C@H](F)CN1; X3 = O=C([C@@H](c1cccnc1)C1CCCCC1)*; Gly(cPr) = N[C@H](C(=O)O)C1CC1; X1 = C[C@@](O)(C(=O)*)C(F)(F)F; Cba = N[C@@H](CC1CCC1)C(=O)O; NMeK = CN[C@@H](CCCCN)C(=O)O; dCba = N[C@H](CC1CCC1)C(=O)O; dNMeK = CN[C@H](CCCCN)C(=O)O; dNva = CCC[C@@H](N)C(=O)O; Ac3c = NC1(C(=O)O)CC1; Aib = CC(C)(N)C(=O)O

Experiments:
[1] = Body weight, NCI-H1048 xenograft study; format: in vivo, mouse; details: 100 mg per kg daily 14 days
[2] = Body weight, NCI-H69 xenograft study; format: in vivo, mouse; details: 100 mg per kg daily 14 days
[3] = system: NCI-H1048 xenografts; assay: NCI-H1048 cell line xenograft efficacy study; format: in vivo, mouse; details: 100 mg per kg daily i.v. 14 days
[4] = system: NCI-H69 xenografts; assay: NCI-H69 cell line xenograft efficacy study; format: in vivo, mouse; details: 100 mg per kg daily i.v. 14 days
[5] = system: NCI-H69 cells; assay: Nocodazole synchronization, propidium iodide FACS; format: cell-based, human; details: NCI-H69, 60 ng ml−1, overnight
[6] = system: NCI-H1048 cells; assay: Live-cell imaging of mitosis; format: cell-based, human; details: NCI-H1048 GFP–H2B, 20 nM
[7] = system: 46 human SCLC cell lines; assay: Cell Titer Glo proliferation assay, panel of 46 SCLC cell lines; format: cell-based; details: 4–8 days
[8] = system: RPE1 cells; assay: Cell-count dose–response assay; format: cell-based, human; details: RPE1, even at high doses
[9] = system: human peripheral blood CD34+ cells; format: cell-based; details: CD34+ haematopoietic stem and progenitor cells, even at high doses
[10] = system: NCI-H1048 cells; assay: Cell-count dose–response assay; format: cell-based, human; details: for activity in proliferation, apoptosis and cell cycle assays: NCI-H1048
[11] = system: p-KNL1 in NCI-H1048 cells; assay: Immunoblot of p-KNL1; format: cell-based, human

CCCN1C(=O)[C@H](CC(C)C)NC(=O)[C@@H](N(C)C(=O)[C@H](CC2CCC2)NC(=O)[C@@H]2C[C@@H](F)CN2C(=O)[C@@](C)(O)C(F)(F)F)CCCCNC(=O)C2(CC2)NC(=O)[C@@H]1Cc1cc(Cl)ccc1Cl [CIRc-028] (X1-[Pro(trans-4-F)][Cba][NMeK]L[X2][Ac3c]; lactam 3-C)
tolerability, body weight [1]: well tolerated without weight loss | tolerability, body weight [2]: well tolerated without weight loss | tumour response [3]: substantially inhibited growth | tumour response [4]: induced tumour regressions

COC(=O)Nc1nc2ccc(C(=O)c3cccs3)cc2[nH]1 [nocodazole]
cells in mitotic arrest [5]: around 90%

CC(C)C[C@@H]1NC(=O)[C@@H](N(C)C(=O)[C@H](CC2CCC2)NC(=O)[C@@H]2C[C@@H](F)CN2C(=O)C2(C(F)(F)F)CC(F)(F)C2)CCCCNC(=O)C2(CC2)NC(=O)[C@H](Cc2cc(Cl)ccc2Cl)N(C)C1=O [CIRc-004] ({cBuCO(3,3-F2-1-CF3)}-[Pro(trans-4-F)][Cba][NMeK]L[NMePhe(2,5-Cl2)][Ac3c]; lactam 3-C)
anaphase initiation (live-cell imaging) [6]: blocked anaphase initiation | sensitivity of 46 SCLC cell lines in anti-proliferation assays [7]: Nearly all lines were highly sensitive | sensitivity of normal cells (mitotic arrest, apoptosis) [8]: insensitive | sensitivity of normal cells (mitotic arrest, apoptosis) [9]: insensitive

CCC[C@H]1NC(=O)[C@H](Cc2cc(Cl)ccc2-c2cnn(C)c2)N(C)C(=O)[C@H](CC(C)C)NC(=O)[C@@H](N(C)C(=O)[C@H](CCCCN2CCOCC2)NC(=O)[C@@H](c2cccnc2)C2CCCCC2)CCCCNC1=O [CIRc-018] (X3-[Nle(6-morpholino)][NMeK]L[X4][dNva]; lactam 2-C)
activity in proliferation, apoptosis and cell cycle assays [10]: lacked activity

COc1ccc(Oc2cc(NCCC(F)(F)F)c3ncc(-c4ccc(C(=O)NC5CC5)c(C)c4)n3n2)c(F)c1F [BAY-1217389]
KNL1 phosphorylation and proliferation ([11]; 3 nM, NCI-H1048): blocked KNL1 phosphorylation without affecting proliferation

COCc1cc(C(=O)Nc2cc([C@H]3CC[C@@H](OC(=O)NC(C)C)C3)[nH]n2)n(C)n1 [PF-07104091]
SAC activation ([11]; NCI-H1048 cells, 24 h): did not activate the SAC

CC(C)C[C@H]1NC(=O)[C@H](N(C)C(=O)[C@@H](CC2CCC2)NC(=O)[C@H]2C[C@H](F)CN2C(=O)C2(C(F)(F)F)CC(F)(F)C2)CCCCNC(=O)C2(CC2)NC(=O)[C@@H](Cc2cc(Cl)ccc2Cl)N(C)C1=O [CIRc-005] ({cBuCO(3,3-F2-1-CF3)}-[dPro(trans-4-F)][dCba][dNMeK][dL][X6][Ac3c]; lactam 3-C)
effect on cellular proliferation ([10]; NCI-H1048, 200 nM): had no effect on cellular proliferation

CC(C)C[C@@H]1NC(=O)[C@@H](N(C)C(=O)[C@@H](NC(=O)[C@@H]2C[C@@H](F)CN2C(=O)C2(C(F)(F)F)CC(F)(F)C2)C2CC2)CCCCNC(=O)C(C)(C)NC(=O)[C@H](Cc2cc(Cl)nn2-c2ccccc2)N(C)C1=O [CIRc-019] ({cBuCO(3,3-F2-1-CF3)}-[Pro(trans-4-F)][Gly(cPr)][NMeK]L[X5][Aib]; lactam 3-C)
activity in proliferation, apoptosis and cell cycle assays [10]: lacked activity
